Reference: patent US20220119354A1, “DIAMINO-SUBSTITUTED PYRIDINES AND PYRIMIDINES AS HERBICIDES” (FMC Corporation, priority 2019, published 2022)

Assays:
Format in all cases: in vivo
[1] = test system: rice (Oryza sativa); assay: Test B flooded paddy test, rice; conditions: Flood, 250 g ai/ha, applied to paddy water, 2-leaf stage, visual evaluation after 13 to 15 d
Method in brief: (§1)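 Each response is a visual 0–100 rating made against untreated controls, where 0 is no effect and 100 is complete control; a dash marks no result. Compound was dosed into 3 cm paddy water over 2-leaf plants, assessed after 13 to 15 d.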

[2] = test system: sedge, umbrella (small-flower umbrella sedge, Cyperus difformis); assay: Test B flooded paddy test, umbrella sedge; conditions: Flood, 250 g ai/ha, applied to paddy water, 2-leaf stage, visual evaluation after 13 to 15 d
Method in brief: as §1

[3] = test system: pigweed (Amaranthus retroflexus); assay: Test A preemergence, pigweed; conditions: 0 to 100 scale, 0 is no effect, 100 is complete control
Method in brief: (§2)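 0–100 visual control rating, ~10 d post-treatment, greenhouse. Pre = directed soil spray on seeded loam/sand; post = spray at 1–2 leaf stage. Surfactant-containing solvent formulation.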

[4] = test system: barnyardgrass (Echinochloa crus-galli); assay: Test A preemergence, barnyardgrass; conditions: 0 to 100 scale, 0 is no effect, 100 is complete control
Method in brief: as §2

[5] = test system: galium (catchweed bedstraw, Galium aparine); assay: Test A postemergence, galium; conditions: 0 to 100 scale, 0 no effect, 100 complete control
Method in brief: as §2

[6] = test system: ryegrass, Italian (Lolium multiflorum); assay: Test A preemergence, Italian ryegrass; conditions: 0 to 100 scale, 0 is no effect, 100 is complete control
Method in brief: as §2

[7] = test system: ragweed (common ragweed, Ambrosia elatior); assay: Test A preemergence, ragweed; conditions: 0 to 100 scale, 0 is no effect, 100 is complete control
Text: Seeds of plant species selected from barnyardgrass (Echinochloa crus-galli), kochia (Kochia scoparia), ragweed (common ragweed, Ambrosia elatior), ryegrass, Italian (Lolium multiflorum), foxtail, giant (Setaria faberii), foxtail, green (Setaria viridis), and pigweed (Amaranthus retroflexus) were planted into a blend of loam soil and sand and treated preemergence with a directed soil spray using test chemicals formulated in a non-phytotoxic solvent mixture which included a surfactant.
At the same time, plants selected from these weed species and also wheat (Triticum aestivum), corn (Zea mays), blackgrass (Alopecurus myosuroides), and galium (catchweed bedstraw, Galium aparine) were planted in pots containing the same blend of loam soil and sand and treated with postemergence applications of test chemicals formulated in the same manner. Plants ranged in height from 2 to 10 cm and were in the one- to two-leaf stage for the postemergence treatment. Treated plants and untreated controls were maintained in a greenhouse for approximately 10 d, after which time all treated plants were compared to untreated controls and visually evaluated for injury. Plant response ratings, summarized in Table A, are based on a 0 to 100 scale where 0 is no effect and 100 is complete control. A dash (-) response means no test result.

[8] = test system: foxtail, giant (Setaria faberii); assay: Test A preemergence, giant foxtail; conditions: 0 to 100 scale, 0 is no effect, 100 is complete control
Method in brief: as §2

[9] = test system: corn (Zea mays); assay: Test A postemergence, corn; conditions: 0 to 100 scale, 0 no effect, 100 complete control
Method in brief: as §2

[10] = test system: pigweed (Amaranthus retroflexus); assay: Test A postemergence, pigweed; conditions: 0 to 100 scale, 0 no effect, 100 complete control
Method in brief: as §2

[11] = test system: ducksalad (Heteranthera limosa); assay: Test B flooded paddy test, ducksalad; conditions: Flood, 250 g ai/ha, applied to paddy water, 2-leaf stage, visual evaluation after 13 to 15 d
Method in brief: as §1

[12] = test system: kochia (Kochia scoparia); assay: Test A preemergence, kochia; conditions: 0 to 100 scale, 0 is no effect, 100 is complete control
Method in brief: as §2

[13] = test system: foxtail, giant (Setaria faberii); assay: Test A postemergence, giant foxtail; conditions: 0 to 100 scale, 0 no effect, 100 complete control
Method in brief: as §2

[14] = test system: barnyardgrass (Echinochloa crus-galli); assay: Test B flooded paddy test, barnyardgrass; conditions: Flood, 250 g ai/ha, applied to paddy water, 2-leaf stage, visual evaluation after 13 to 15 d
Method in brief: as §1

[15] = test system: kochia (Kochia scoparia); assay: Test A postemergence, kochia; conditions: 0 to 100 scale, 0 no effect, 100 complete control
Method in brief: as §2

[16] = test system: ryegrass, Italian (Lolium multiflorum); assay: Test A postemergence, Italian ryegrass; conditions: 0 to 100 scale, 0 no effect, 100 complete control
Method in brief: as §2

[17] = test system: wheat (Triticum aestivum); assay: Test A postemergence, wheat; conditions: 0 to 100 scale, 0 no effect, 100 complete control
Method in brief: as §2

[18] = test system: ragweed (common ragweed, Ambrosia elatior); assay: Test A postemergence, ragweed; conditions: 0 to 100 scale, 0 no effect, 100 complete control
Method in brief: as §2

[19] = test system: blackgrass (Alopecurus myosuroides); assay: Test A postemergence, blackgrass; conditions: 0 to 100 scale, 0 no effect, 100 complete control
Method in brief: as §2

SMILES	Plant response rating, Rice (0 to 100 scale, 0 is no effect, 100 is complete control) [1]	Plant response rating, Sedge, Umbrella (0 to 100 scale, 0 is no effect, 100 is complete control) [2]	Pigweed plant response rating ([3]; 125 g ai/ha)	Pigweed plant response rating ([3]; 500 g ai/ha)	Barnyardgrass plant response rating ([4]; 125 g ai/ha)	Barnyardgrass plant response rating ([4]; 500 g ai/ha)	Plant response rating, Galium ([5]; 125 g ai/ha)	Plant response rating, Galium ([5]; 500 g ai/ha)	Ryegrass, Italian plant response rating ([6]; 125 g ai/ha)	Ryegrass, Italian plant response rating ([6]; 500 g ai/ha)	Ragweed plant response rating ([7]; 125 g ai/ha)	Ragweed plant response rating ([7]; 500 g ai/ha)	Foxtail, Giant plant response rating ([8]; 125 g ai/ha)	Foxtail, Giant plant response rating ([8]; 500 g ai/ha)	Plant response rating, Corn ([9]; 125 g ai/ha)	Plant response rating, Corn ([9]; 500 g ai/ha)	Plant response rating, Pigweed ([10]; 125 g ai/ha)	Plant response rating, Pigweed ([10]; 500 g ai/ha)	Plant response rating, Ducksalad (0 to 100 scale, 0 is no effect, 100 is complete control) [11]	Kochia plant response rating ([12]; 125 g ai/ha)	other results
Cc1ccc2c([C@@H](Nc3ncc(C(F)(F)F)c(N)n3)C3CC3)coc2c1 [Compound 91]	0	0	0	0	0	0	0	0	0	30	0	0	0	0	0	0	0	0	0	0	Kochia plant response rating ([12]; 500 g ai/ha): 0; Plant response rating, Foxtail, Giant ([13]; 125 g ai/ha): 0; Plant response rating, Foxtail, Giant ([13]; 500 g ai/ha): 0; Plant response rating, Barnyardgrass (0 to 100 scale, 0 is no effect, 100 is complete control) [14]: 0; Plant response rating, Kochia ([15]; 125 g ai/ha): 0; Plant response rating, Kochia ([15]; 500 g ai/ha): 0; Plant response rating, Ryegrass, Italian ([16]; 125 g ai/ha): 0; Plant response rating, Ryegrass, Italian ([16]; 500 g ai/ha): 0; Plant response rating, Wheat ([17]; 125 g ai/ha): 0; Plant response rating, Wheat ([17]; 500 g ai/ha): 0; Plant response rating, Ragweed ([18]; 125 g ai/ha): 0; Plant response rating, Ragweed ([18]; 500 g ai/ha): 0; Plant response rating, Blackgrass ([19]; 125 g ai/ha): 0; Plant response rating, Blackgrass ([19]; 500 g ai/ha): 0
Cc1ccc2c([C@H](Nc3ncc(C(F)(F)F)c(N)n3)C3CC3)coc2c1 [Compound 90]	0	20	70	100	0	80	40	70	30	50	50	100	70	100	0	0	60	100	25	0	Kochia plant response rating ([12]; 500 g ai/ha): 90; Plant response rating, Foxtail, Giant ([13]; 125 g ai/ha): 0; Plant response rating, Foxtail, Giant ([13]; 500 g ai/ha): 50; Plant response rating, Barnyardgrass (0 to 100 scale, 0 is no effect, 100 is complete control) [14]: 40; Plant response rating, Kochia ([15]; 125 g ai/ha): 20; Plant response rating, Kochia ([15]; 500 g ai/ha): 90; Plant response rating, Ryegrass, Italian ([16]; 125 g ai/ha): 30; Plant response rating, Ryegrass, Italian ([16]; 500 g ai/ha): 40; Plant response rating, Wheat ([17]; 125 g ai/ha): 0; Plant response rating, Wheat ([17]; 500 g ai/ha): 30; Plant response rating, Ragweed ([18]; 125 g ai/ha): 30; Plant response rating, Ragweed ([18]; 500 g ai/ha): 70; Plant response rating, Blackgrass ([19]; 125 g ai/ha): 0; Plant response rating, Blackgrass ([19]; 500 g ai/ha): 60
